The results in this text go back to paper PMC12375108 (Nature Communications, 2025).

Format in all cases: binding
For assay [1], the target named is T1, E. coli hinT H101N (Ec hinT^HN) (Escherichia coli, UniProt P0ACE7, H101N).
T1 construct: expressed from pProEx in E. coli BL21, 6xHis cut by TEV, SEC; ATG replaces native TTG start
T1 sequence (P0ACE7 1-119 H101N): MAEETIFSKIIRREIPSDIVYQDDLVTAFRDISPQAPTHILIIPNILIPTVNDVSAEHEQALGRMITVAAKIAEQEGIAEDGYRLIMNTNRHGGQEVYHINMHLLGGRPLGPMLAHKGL
The experiment in a line: isothermal titration calorimetry. For orientation: ITC needs no label: the signal is the heat of the interaction.

Assay [2] concerns the target T2, H. sapiens hinT H112N (human hinT^HN) (Homo sapiens, UniProt P49773, H112N).
T2 construct: gene HINT1
T2 sequence (P49773 1-126 H112N): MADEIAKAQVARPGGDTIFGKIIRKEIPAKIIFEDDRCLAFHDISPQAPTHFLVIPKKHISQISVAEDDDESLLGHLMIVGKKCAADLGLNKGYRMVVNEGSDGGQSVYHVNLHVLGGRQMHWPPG
The experiment in a line: isothermal titration calorimetry.

The target of assay [3] is T3, T. marianensis hinT H100N (Tm hinT^HN) (Thermaerobacter marianensis, UniProt E6SKA2, H100N).
T3 construct: gene Tmar_2180; expressed from pProEx in E. coli BL21, 6xHis cut by TEV, SEC
The experiment in a line: isothermal titration calorimetry.

Assay [4] deals with T2, H. sapiens hinT H112N (human hinT^HN). As to the kind of experiment: competition pulldown with sucA-AMP, α-AMP immunoblot. As to conditions: GST-tagged hinT on beads, sucA-AMP 470 nM, GMP up to 11.75 μM, TBS with Triton X-100, 1 mM DTT, 4 °C; competitive.

On to `Nc1ncnc2c1ncn2[C@@H]1O[C@H](COP(=O)(O)O)[C@@H](O)[C@H]1O` [AMP], for which the results for the Kd in assay [1], in assay [2] and in assay [3] were 69 µM, 0.279 µM and 3 µM, respectively.
As to `Nc1nc2c(ncn2[C@@H]2O[C@H](COP(=O)(O)O)[C@@H](O)[C@H]2O)c(=O)[nH]1` [GMP], the “competition pulldown with sucA-AMP, α-AMP immunoblot” value in assay [4] was “increasing concentrations of GMP showed weaker competition with AMPylated proteins for binding to Hs hinT^HN”.
